Experimental data published in BindingDB's records for doi:10.1111/cbdd.12463 (University of California San Diego, 2015).

target: T1, Decaprenyl diphosphate synthase (Mycobacterium tuberculosis (strain CDC 1551 / Oshkosh), UniProt P9WFF6); experiment: DPPS Inhibition (GPP based) Assay; settings: pH 7.5
T1 sequence (P9WFF6 whole entry): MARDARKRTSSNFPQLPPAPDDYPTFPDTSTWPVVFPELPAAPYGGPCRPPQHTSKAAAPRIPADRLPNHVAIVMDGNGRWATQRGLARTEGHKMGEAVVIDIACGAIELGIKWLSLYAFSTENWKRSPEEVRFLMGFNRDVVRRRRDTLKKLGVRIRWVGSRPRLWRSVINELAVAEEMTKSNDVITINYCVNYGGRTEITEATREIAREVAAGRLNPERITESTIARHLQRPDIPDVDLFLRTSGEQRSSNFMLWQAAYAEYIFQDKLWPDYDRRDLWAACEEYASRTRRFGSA
Text: We screened an in-house library of 43 compounds using GPP as substrate.

Q: Which IC50 does the source give for `NC(=O)c1cc(NC(=O)c2ccc(C(=O)Nc3cc(C(N)=O)cc(C4=NCCN4)c3)cc2)cc(C2=NCCN2)c1` [100873, 18] here?
A: 8400 nM

Q: How did the IC50 turn out when `CCCCCCCCCCCCCCSc1ccccc1C(=O)O` [BPH-948] was run?
A: 36 nM

Q: `CCCCCCCCCCCCCCOc1cc([N+](=O)[O-])ccc1C(=O)O` [BPH-965] was tested. Which IC50 did it give?
A: 1000 nM

Q: How did the IC50 turn out when `CCCCCCCCCCCCOc1cccc(O)c1C(=O)O` [BPH-1065] was run?
A: 4500 nM

Q: How did the IC50 turn out when `O=C(/C=C/c1ccc(O)c(O)c1)OC1CC(O)(C(=O)O)CC(O)C1O` (stereo not drawn) [BPH-1068] was run?
A: 2300 nM

Q: With `CCn1c2ccccc2c2cc(NC(=O)/C=C(\O)C(=O)O)ccc21` [BPH-1149] as the compound, how does the IC50 read?
A: 2000 nM

Q: With `CCCCCCCCCCOc1cccc(COc2ccccc2C(=O)O)c1` [BPH-1150] as the compound, how does the IC50 read?
A: 700 nM

Q: `CCCCCCCCCCOc1cccc(COc2ccc(S(=O)(=O)N3CCN(C(C)=O)CC3)cc2C(=O)O)c1` [BPH-1165] was tested. Which IC50 did it give?
A: 3000 nM

Q: Which IC50 does the source give for `CCCCCCCOc1cccc(C(=O)Nc2ccccc2C(=O)O)c1` [BPH-1167] here?
A: 133 nM

Q: How did the IC50 turn out when `CCCCCCCCCCOc1cccc(C(=O)Nc2ccc(S(N)(=O)=O)cc2C(=O)O)c1` [BPH-1256] was run?
A: 41 nM

Q: How did the IC50 turn out when `CCCCCCCCCCOc1cc(C(=O)Nc2ccc(S(N)(=O)=O)cc2C(=O)O)cc(C(=O)OC)c1` [BPH-1257] was run?
A: 1100 nM

Q: For `CCCCCCCCOc1cccc(CNC(=O)/C=C(\O)C(=O)O)c1` [BPH-1305], which IC50 is on record?
A: 6300 nM

Q: Which IC50 does the source give for `CCCCCCCCOc1ccc(C(=O)/C=C(\O)C(=O)O)cc1` [BPH-1330] here?
A: 20000 nM

Q: For `CCCCCCOc1ccc(C(=O)/C=C(\O)C(=O)O)cc1` [BPH-1378], which IC50 is on record?
A: 10000 nM

Q: With `CC(C)=CCC/C(C)=C/COc1ccc(C(=O)/C=C(\O)C(=O)O)cc1` [BPH-1379] as the compound, how does the IC50 read?
A: 4100 nM

Q: With `CCCCCCCCOc1cccc(P(=O)(CC(=O)C(=O)O)OCC)c1` (stereo not drawn) [BPH-1389] as the compound, how does the IC50 read?
A: 2600 nM

Q: How did the IC50 turn out when `O=C(Nc1ccc(CCC2=NCCN2)cc1)c1ccc(C(=O)Nc2ccc(CCC3=NCCN3)cc2)cc1` [BPH-1413] was run?
A: 5800 nM

Q: How did the IC50 turn out when `NCCc1cc(Br)cc(C#Cc2ccc(C#Cc3cc(Br)cc(CCN)c3)cc2)c1` [BPH-1419] was run?
A: 570 nM

Q: How did the IC50 turn out when `NCCc1cccc(C#Cc2ccc(C#Cc3cccc(CCN)c3)cc2)c1` [BPH-1427] was run?
A: 3200 nM

Q: For `CCCCCCCCOc1cccc(C(=O)Nc2cccc(P(=O)(O)O)c2)c1` [BPH-1432], which IC50 is on record?
A: 210 nM

Q: `CCCCCCCCOc1cccc(C(=O)N(C)c2cccc(P(=O)(O)O)c2)c1` [BPH-1433] was tested. Which IC50 did it give?
A: 490 nM

Q: For `CCCCCCCCOc1cccc(C(=O)Nc2ccccc2P(=O)(O)O)c1` [BPH-1440], which IC50 is on record?
A: 760 nM

Q: With `CCCCCCCCOc1cccc(C(=O)Nc2cc(F)c(F)cc2C(=O)O)c1` [BPH-1455] as the compound, how does the IC50 read?
A: 279 nM

Q: How did the IC50 turn out when `CCCCCCCCOc1cccc(C(=O)Nc2ccc(Cl)cc2C(=O)O)c1` [BPH-1466] was run?
A: 156 nM

Q: With `CCCCCCCCOc1cccc(C(=O)Nc2cc(S(C)(=O)=O)ccc2C(=O)O)c1` [BPH-1467] as the compound, how does the IC50 read?
A: 138 nM

Q: Which IC50 does the source give for `CCCCCCC1=C(C[N+](C)(C)C)C(=O)c2ccccc2C1=O` [BPH-1474] here?
A: 7000 nM

Q: Which IC50 does the source give for `C/C=C\C(=C/CC(=O)Nc1ccc(OC(F)(F)F)cc1C(=O)O)OCCCCCCCC` [BPH-1477] here?
A: 43 nM

target: T1, Decaprenyl diphosphate synthase; experiment: DPPS Inhibition (trans FPP based) Assay; settings: pH 7.5
Text: We screened an in-house library of 53 compounds using trans-FPP as substrate.

Q: How did the IC50 turn out when `CCCCCCCCCCCCNCC(P(=O)(O)O)P(=O)(O)O` [1-[(n-Dodec-1-ylamino)ethyl]1,1-bisphosphonic acid] was run?
A: 370000 nM

Q: For `O=P(O)(O)C(CNc1cccc(-c2ccccc2)c1)P(=O)(O)O` [2-(biphenyl-3-ylamino)ethane-1,1-diyldiphosphonic acid], which IC50 is on record?
A: 17000 nM

Q: With `C=CC/C=C\C/C=C\CCCCCCCc1cccc(O)c1C(=O)O` [6-[8(Z),11(Z),14-pentadecatrienyl]salicylic acid] as the compound, how does the IC50 read?
A: 280000 nM

Q: For `O=P(O)(O)C(O)(Cc1cccc(-c2cccc(NS(=O)(=O)c3ccc4ccccc4c3)c2)c1)P(=O)(O)O` [(1-hydroxy-2-{3-[3-(naphthalene-2-sulfonamido)phenyl]phenyl}-1-phosphonoethyl)phosphonic acid], which IC50 is on record?
A: 8200 nM

Q: How did the IC50 turn out when `O=P(O)(O)C(CCCc1ccc(-c2ccccc2)cc1)P(=O)(O)O` [(4-Biphenyl-4-yl-1-phosphono-butyl)-phosphonic acid] was run?
A: 1600 nM

Q: Which IC50 does the source give for `O=P(O)(O)C(O)(c1ccc(-c2ccccc2)cc1)P(=O)(O)O` [(Biphenyl-4-yl-hydroxy-phosphono-methyl)-phosphonic acid] here?
A: 17000 nM
